Test results taken from ChEMBL document CHEMBL3862033 (J Med Chem, 2016).

Key:
[1] = biological target: 5-hydroxytryptamine receptor 5A (Homo sapiens) (UniProt P47898); assay: Displacement of [3H]LSD from human 5-HT5A receptor expressed in Flp-In-CHO cell membranes incubated for 90 mins under dark condition by microbeta scintillation counting method relative to control; set-up: concentration or dose not given beside the values
[2] = biological target: 5-hydroxytryptamine receptor 1B (Homo sapiens) (UniProt P28222); assay: Displacement of [3H]5-CT from human 5-HT1BR expressed in HEK cell membranes at 10 uM incubated for 90 mins under dark condition by microbeta scintillation counting method relative to control; details: HEK293
Sequence of 5-hydroxytryptamine receptor 1B (Homo sapiens) (P28222 whole entry): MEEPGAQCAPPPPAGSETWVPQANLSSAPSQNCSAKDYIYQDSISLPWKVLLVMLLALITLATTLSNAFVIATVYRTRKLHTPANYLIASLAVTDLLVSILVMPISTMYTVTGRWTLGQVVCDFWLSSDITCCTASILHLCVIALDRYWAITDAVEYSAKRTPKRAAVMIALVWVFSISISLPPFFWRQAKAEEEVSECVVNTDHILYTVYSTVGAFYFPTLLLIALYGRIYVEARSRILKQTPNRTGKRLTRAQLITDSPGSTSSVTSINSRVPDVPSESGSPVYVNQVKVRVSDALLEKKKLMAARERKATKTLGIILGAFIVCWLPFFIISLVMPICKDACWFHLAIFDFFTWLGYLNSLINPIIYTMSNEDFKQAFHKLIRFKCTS

Adenosine receptor A3 = biological target: T1, Adenosine receptor A3 (Homo sapiens, UniProt P0DMS8); assay: Displacement of [125l]N 6-(4-amino-3-iodobenzyl)adenosine-5'-N-methyluronamide from recombinant human A3AR expressed in CHO cell membranes after 60 mins by gamma counting method
T1 sequence (P0DMS8 whole entry): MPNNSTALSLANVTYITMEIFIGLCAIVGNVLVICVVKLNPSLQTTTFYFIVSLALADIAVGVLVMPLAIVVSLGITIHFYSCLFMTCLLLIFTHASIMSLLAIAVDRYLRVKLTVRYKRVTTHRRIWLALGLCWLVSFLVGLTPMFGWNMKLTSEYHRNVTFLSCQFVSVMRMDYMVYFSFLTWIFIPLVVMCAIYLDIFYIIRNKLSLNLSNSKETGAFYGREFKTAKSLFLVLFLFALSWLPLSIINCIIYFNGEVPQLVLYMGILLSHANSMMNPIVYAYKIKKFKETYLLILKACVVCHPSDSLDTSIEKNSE

[3] = biological target: T2, 5-hydroxytryptamine receptor 2C (Homo sapiens, UniProt P28335); assay: Displacement of [3H]mesulergine from human 5-HT2CR expressed in Flp-In HEK cell membranes incubated for 90 mins under dark condition by microbeta scintillation counting method; set-up: species or system HEK293
T2 sequence (P28335 whole entry): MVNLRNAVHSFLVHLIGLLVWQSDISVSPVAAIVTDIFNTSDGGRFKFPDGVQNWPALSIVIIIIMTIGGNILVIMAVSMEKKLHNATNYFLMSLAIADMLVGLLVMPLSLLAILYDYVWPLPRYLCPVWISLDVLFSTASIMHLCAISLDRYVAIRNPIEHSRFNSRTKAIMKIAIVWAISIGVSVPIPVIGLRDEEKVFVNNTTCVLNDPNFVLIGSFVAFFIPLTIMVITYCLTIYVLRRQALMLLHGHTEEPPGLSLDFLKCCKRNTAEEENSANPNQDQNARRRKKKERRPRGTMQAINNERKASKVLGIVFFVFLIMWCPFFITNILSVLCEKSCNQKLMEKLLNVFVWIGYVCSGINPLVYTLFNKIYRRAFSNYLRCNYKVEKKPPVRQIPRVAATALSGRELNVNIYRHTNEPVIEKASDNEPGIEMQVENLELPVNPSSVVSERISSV

[4] = biological target: T3, Adenosine receptor A1 (Homo sapiens) (UniProt P30542); assay: Agonist activity at recombinant human A1AR expressed in CHO cells assessed as inhibition of forskolin-stimulated cAMP accumulation at 10 uM after 15 mins relative to N6-cyclopentyladenosine; assay type: functional, cell-based
T3 sequence (whole entry): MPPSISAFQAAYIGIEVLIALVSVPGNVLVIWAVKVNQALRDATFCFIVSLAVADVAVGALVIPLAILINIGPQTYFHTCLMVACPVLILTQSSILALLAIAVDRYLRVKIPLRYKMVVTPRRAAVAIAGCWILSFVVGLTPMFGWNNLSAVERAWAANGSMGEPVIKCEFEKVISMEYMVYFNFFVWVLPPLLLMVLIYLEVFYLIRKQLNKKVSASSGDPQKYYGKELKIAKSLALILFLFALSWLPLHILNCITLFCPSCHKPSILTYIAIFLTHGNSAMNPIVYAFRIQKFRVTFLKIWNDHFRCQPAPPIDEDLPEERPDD

[5] = biological target: T4, Adenosine receptor A3 (Mus musculus) (UniProt Q61618); assay: Agonist activity at recombinant mouse A3AR expressed in HEK293 cells assessed as inhibition of forskolin-stimulated cAMP accumulation at 10 uM after 15 mins relative to adenosine-5'-N-ethyluronamide; assay type: functional, cell-based
T4 sequence (whole entry): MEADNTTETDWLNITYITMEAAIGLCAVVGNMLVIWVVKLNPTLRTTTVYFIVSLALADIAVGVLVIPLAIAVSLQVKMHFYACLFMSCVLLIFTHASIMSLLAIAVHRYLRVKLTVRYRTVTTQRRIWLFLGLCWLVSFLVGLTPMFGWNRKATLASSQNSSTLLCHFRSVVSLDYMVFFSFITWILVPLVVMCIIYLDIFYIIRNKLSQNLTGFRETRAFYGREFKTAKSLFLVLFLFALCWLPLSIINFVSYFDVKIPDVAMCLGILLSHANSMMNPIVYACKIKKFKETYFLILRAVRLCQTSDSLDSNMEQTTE

[6] = Metabolic stability in human liver microsomes assessed as compound remaining measured after 1 hr in presence of cofactor; assay type: ADME
[7] = Intrinsic clearance in human liver microsomes; assay type: ADME
[8] = Volume of distribution at steady state in Sprague-Dawley rat at 1 mg/kg, iv administered as single dose; assay type: ADME, organism-based; details: in vivo
[9] = Metabolic stability in mouse plasma assessed as compound remaining measured after 120 mins; assay type: ADME, cell-free; details: 2 h
[10] = biological target: 5-hydroxytryptamine receptor 2A (Homo sapiens, UniProt P28223); assay: Displacement of [3H]ketanserin from human 5-HT2A receptor expressed in HEK-T cell membranes at 10 uM incubated for 90 mins under dark condition by microbeta scintillation counting method relative to control
Sequence of 5-hydroxytryptamine receptor 2A (P28223 whole entry): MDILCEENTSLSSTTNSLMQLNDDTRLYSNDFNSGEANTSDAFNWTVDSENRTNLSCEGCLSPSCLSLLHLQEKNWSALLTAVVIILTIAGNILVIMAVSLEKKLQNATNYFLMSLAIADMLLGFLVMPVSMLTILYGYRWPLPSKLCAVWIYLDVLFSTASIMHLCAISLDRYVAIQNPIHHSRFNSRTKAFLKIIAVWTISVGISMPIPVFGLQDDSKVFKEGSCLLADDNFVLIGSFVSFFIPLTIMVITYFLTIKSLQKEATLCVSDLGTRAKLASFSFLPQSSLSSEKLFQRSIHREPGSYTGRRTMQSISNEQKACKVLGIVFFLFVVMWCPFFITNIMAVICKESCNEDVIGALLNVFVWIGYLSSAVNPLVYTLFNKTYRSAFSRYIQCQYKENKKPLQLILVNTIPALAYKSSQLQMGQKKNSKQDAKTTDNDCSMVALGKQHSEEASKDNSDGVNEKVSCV

[11] = Half life in mouse liver microsomes; assay type: ADME
[12] = Apparent permeability across apical side to basolateral side in human Caco2 cells; assay type: ADME, cell-based; details: caco-2
[13] = Initial plasma concentration in Sprague-Dawley rat at 1 mg/kg, iv administered as single dose; assay type: ADME, organism-based; details: in vivo
[14] = Half life of compound in fasted state simulated gastric fluid at pH 1.6; assay type: ADME, tissue-based, Stomach; details: simulated gi fluid
[15] = Metabolic stability in human plasma assessed as compound remaining measured after 120 mins; assay type: ADME, cell-free; details: read-out: Stability
[16] = Half life of compound in fasted state simulated intestinal fluid at pH 6.5; assay type: ADME; details: simulated gi fluid
Cytochrome P450 2C9 = Cytochrome P450 2C9 (Homo sapiens, UniProt P11712); assay: Inhibition of CYP2C9 (unknown origin); assay type: ADME
Sequence of Cytochrome P450 2C9 (P11712 whole entry): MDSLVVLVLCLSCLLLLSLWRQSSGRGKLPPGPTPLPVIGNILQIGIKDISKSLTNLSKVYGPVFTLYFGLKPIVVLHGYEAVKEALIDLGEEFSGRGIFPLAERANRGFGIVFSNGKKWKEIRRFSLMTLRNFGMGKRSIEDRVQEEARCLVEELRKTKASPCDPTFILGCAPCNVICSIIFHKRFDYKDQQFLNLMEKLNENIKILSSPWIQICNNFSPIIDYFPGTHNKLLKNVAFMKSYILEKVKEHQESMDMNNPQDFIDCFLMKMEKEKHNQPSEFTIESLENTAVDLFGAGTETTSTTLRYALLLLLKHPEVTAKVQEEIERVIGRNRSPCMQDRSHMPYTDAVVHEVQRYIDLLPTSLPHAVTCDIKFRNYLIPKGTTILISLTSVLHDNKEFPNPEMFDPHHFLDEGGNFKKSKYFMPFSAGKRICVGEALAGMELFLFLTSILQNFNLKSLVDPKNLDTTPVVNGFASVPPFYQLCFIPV

[17] = Half life in Sprague-Dawley rat at 1 mg/kg, iv administered as single dose; assay type: ADME, organism-based; details: in vivo
[18] = Growth inhibition of human HepG2 cells at 30 uM; assay type: cell-based; details: read-out: GI
[19] = Half life in human liver microsomes; assay type: ADME
[20] = Half life in rat liver microsomes; assay type: ADME
[21] = Metabolic stability in rat plasma assessed as compound remaining measured after 120 mins; assay type: ADME, cell-free; details: 2 h
[22] = Apparent permeability across basolateral side to apical side in human Caco2 cells; assay type: ADME, cell-based; details: caco-2
[23] = Stability of compound in pH 1.6 fasted state simulated gastric fluid assessed as compound remaining measured after 2 hrs; assay type: ADME; details: read-out: Stability
Adenosine receptor A2a = Adenosine receptor A2a (Homo sapiens, UniProt P29274); assay: Displacement of [3 H]2-[p-(2-carboxyethyl)phenyl-ethylamino]-5'-N-ethylcarboxamidoadenosine from recombinant human adenosine receptor A2A expressed in HEK293 cell membranes after 60 mins by liquid scintillation counting method
Sequence of Adenosine receptor A2a (P29274 whole entry): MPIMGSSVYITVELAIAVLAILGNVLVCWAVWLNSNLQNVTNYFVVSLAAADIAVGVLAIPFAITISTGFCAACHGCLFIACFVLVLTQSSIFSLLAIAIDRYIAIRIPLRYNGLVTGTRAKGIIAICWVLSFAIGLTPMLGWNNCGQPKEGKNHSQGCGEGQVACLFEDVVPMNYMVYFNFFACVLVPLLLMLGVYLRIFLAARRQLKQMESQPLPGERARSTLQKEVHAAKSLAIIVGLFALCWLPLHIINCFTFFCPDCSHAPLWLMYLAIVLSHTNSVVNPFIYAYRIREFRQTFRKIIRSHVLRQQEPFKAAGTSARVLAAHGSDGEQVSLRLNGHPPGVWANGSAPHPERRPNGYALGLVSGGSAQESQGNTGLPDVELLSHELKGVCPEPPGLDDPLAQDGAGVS

Sequence of 5-hydroxytryptamine receptor 5A (Homo sapiens) (P47898 whole entry): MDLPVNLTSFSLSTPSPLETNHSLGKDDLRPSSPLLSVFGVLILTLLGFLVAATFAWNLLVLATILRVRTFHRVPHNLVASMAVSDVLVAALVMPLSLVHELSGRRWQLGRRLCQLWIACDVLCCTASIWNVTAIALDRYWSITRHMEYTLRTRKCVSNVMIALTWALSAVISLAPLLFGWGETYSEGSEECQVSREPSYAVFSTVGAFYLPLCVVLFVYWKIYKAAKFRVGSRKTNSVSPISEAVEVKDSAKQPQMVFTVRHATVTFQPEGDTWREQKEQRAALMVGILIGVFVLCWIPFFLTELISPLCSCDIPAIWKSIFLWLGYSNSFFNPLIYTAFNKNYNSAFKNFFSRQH

| Structure (SMILES) | inhibition [1] [%] | inhibition [2] [%] | Ki (Adenosine receptor A3) [nM] | Ki [3] [nM] | Imax [4] [%] | Imax [5] [%] | Stability [6] [%] | CLH [7] [µL/min/mg] | Vdss [8] [L/kg] | Stability [9] [%] | inhibition [10] [%] | t1/2 [11] [h] | Papp [12] [×10⁻⁶ cm/s] | C0 [13] [ng/mL] | t1/2 [14] [h] | remaining at 2 h [15] [%] | t1/2 [16] [h] | IC50 (Cytochrome P450 2C9) [nM] | t1/2 [17] [h] | inhibition at 30 µM [18] [%] | also measured |
| --- | --- | --- | --- | --- | --- | --- | --- | --- | --- | --- | --- | --- | --- | --- | --- | --- | --- | --- | --- | --- | --- |
| CCOC(=O)[C@@]12C[C@@H]1[C@@H](n1cnc3c(NC(C4CC4)C4CC4)nc(Cl)nc31)[C@H](O)[C@@H]2O | < 50 | < 50 | 236 | 30 | 89 | 26.3 | – | – | – | – | – | – | – | – | – | – | – | – | – | – | – |
| COC(=O)[C@@]12C[C@@H]1[C@@H](n1cnc3c(NC(C4CC4)C4CC4)nc(Cl)nc31)[C@H](O)[C@@H]2O | < 50 | < 50 | 766 | 117 | – | 41.4 | 94 | 0.77 | 4.62 | 61 | < 10 | > 2.33 | 18.47 | 349 | 2.08 | 95.3 to 100 | > 8 | 20100 | 3.56 | < 30 | t1/2 [19]: > 2.33 h; t1/2 [20]: > 2.33 h; Stability [21]: 70.9%; Papp [22]: 30.59 ×10⁻⁶ cm/s; remaining at 2 h [23]: 50% |
| OC[C@@]12C[C@@H]1[C@@H](n1cnc3c(NC(C4CC4)C4CC4)nc(Cl)nc31)[C@H](O)[C@@H]2O | < 50 | < 50 | 1600 | 84 | 104 | – | – | – | – | – | < 10 | – | – | – | – | – | – | – | – | – | Ki (Adenosine receptor A2a): 2200 nM |
| CNC(=O)[C@@]12C[C@@H]1[C@@H](n1cnc3c(NC(C4CC4)C4CC4)nc(Cl)nc31)[C@H](O)[C@@H]2O | < 50 | < 50 | 34 | 269 | – | 96.7 | 87 | 1.75 | 3.16 | 95 | < 10 | > 2.42 | 4.73 | 1070 | 2.2 | 100 to 104 | > 8 | > 30000 | 2.89 | < 30 | t1/2 [19]: 2.17 h; t1/2 [20]: > 2.33 h; Stability [21]: 88.7%; Papp [22]: 46.21 ×10⁻⁶ cm/s; remaining at 2 h [23]: 50%; Ki (Adenosine receptor A2a): 4320 nM |
